Key:
[1] = system: collagenase (MMP-1) promoter; test: Experiment 4.2: collagenase (MMP-1) promoter-luciferase in MCF-7 cells with antisense construct for the thyroid receptor; assay type: cell-based, human; conditions: MCF-7 + thyroid receptor antisense; for % Control: Blank = 100
Protocol: These experiments were intended to identify the receptor through which compounds I might be acting to block collagenase promoter activity.
Transfection procedure hereinbefore described with CV1 cells was repeated using MCF-7 mammary breast cancer cells derived from pleural effusion from a breast cancer patient. Additionally, each experiment included transfection of a plasmid (at 8 ug per 5×10^5 cells) containing the −517/+63 section of the collagenase (MMP-1) promoter linked to the luciferase gene. TPA was used as above to stimulate activity of the collagenase promoter resulting in luciferase production. Compound II or 3,3,5-triiodo-L-thyronine (T3) was included (both at 10^−8M), the latter being a known ligand for the thyroid hormone receptor.
Experiment 4.2. The procedure of Experiment 4.1 was repeated except that a second plasmid, containing 662 bp antisense construct for the thyroid receptor (at 8 ug per 5×10^5 cells) was additionally transfected.

[2] = target: T1, androgen receptor (Homo sapiens, UniProt P10275); test: Experiment 2: PGL3MMTV-luciferase transactivation in CV1 cells with androgen receptor (AR); assay type: cell-based; conditions: for % control (AR): Blank = 100
T1 construct: expressed in transfected cells; host or cells: CV1 (transformed African Green Monkey kidney cell line)
T1 sequence (P10275 1-920): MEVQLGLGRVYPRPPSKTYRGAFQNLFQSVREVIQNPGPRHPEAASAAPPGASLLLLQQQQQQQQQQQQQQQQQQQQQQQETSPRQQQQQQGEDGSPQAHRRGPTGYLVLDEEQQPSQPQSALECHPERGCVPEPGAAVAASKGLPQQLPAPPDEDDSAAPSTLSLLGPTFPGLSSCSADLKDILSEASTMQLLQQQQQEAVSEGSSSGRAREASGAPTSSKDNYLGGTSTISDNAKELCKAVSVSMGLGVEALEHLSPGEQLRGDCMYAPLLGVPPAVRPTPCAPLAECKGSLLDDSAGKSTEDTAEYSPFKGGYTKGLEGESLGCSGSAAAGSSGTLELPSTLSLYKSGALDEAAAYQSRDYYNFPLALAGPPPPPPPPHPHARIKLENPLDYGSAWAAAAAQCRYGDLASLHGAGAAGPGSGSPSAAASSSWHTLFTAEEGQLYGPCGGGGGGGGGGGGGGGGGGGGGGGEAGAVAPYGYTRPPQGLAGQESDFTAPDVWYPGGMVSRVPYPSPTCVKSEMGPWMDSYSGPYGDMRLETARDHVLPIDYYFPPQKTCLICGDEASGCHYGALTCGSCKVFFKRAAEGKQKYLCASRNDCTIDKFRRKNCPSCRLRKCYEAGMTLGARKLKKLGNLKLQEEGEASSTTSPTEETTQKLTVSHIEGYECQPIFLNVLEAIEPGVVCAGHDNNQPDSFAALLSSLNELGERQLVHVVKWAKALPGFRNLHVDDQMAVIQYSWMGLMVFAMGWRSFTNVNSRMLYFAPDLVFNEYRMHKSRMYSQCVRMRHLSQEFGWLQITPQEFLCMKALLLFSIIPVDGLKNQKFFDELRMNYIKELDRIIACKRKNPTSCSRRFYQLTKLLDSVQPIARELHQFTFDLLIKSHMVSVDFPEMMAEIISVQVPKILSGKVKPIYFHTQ
Text: (§1) Two plasmid constructs were introduced by standard calcium phosphate precipitation of DNA followed by glycerol shock (Ausubel F M, Brent R, Kingston D D, Moore J G et al Current protocols in molecular biology 1994 Greene Publishing Associates/Wiley-Interscience, New York, N.Y.) using a transformed African Green Monkey kidney cell line (CV1) (Schneikert J, Peterziel H, Defossez P-A, Klocker H, de Launoit Y and Cato A C B Androgen receptor-Ets protein interaction is a novel mechanism for steroid hormone-mediated down-modulation of matrix metalloproteinase expression, Journal of Biological Chemistry. Vol 271(39) (pp 23907-23913), 1996).
This experiment was intended to investigate the activation of androgen and corticosteroid receptors by compound I.
CPII was compound II above, clobuzarit, which was used at 10^−7M.

[3] = system: collagenase I promoter; test: Experiment 1: collagenase I promoter (-73/+63)-luciferase in CV1 cells, no receptor plasmid (Empty); assay type: cell-based, African Green Monkey; conditions: for Raw counts (Empty) / % control (Empty): no receptor; for % control (Empty): Blank = 100
Text: as §1
Accordingly, the following two plasmids were included into CV1 cells described above — • (a) Either of GR1 or pSG5ARF containing glucocorticoid or androgen receptor (AR) respectively, both at 2 ug per 5×10^5 cells, driven by the Rous sarcoma virus promoter, and • (b) a plasmid containing the −73/+63 portion of the collagenase I promoter linked to luciferase gene at 8 ug per 5×10^5 cells.
CPII was compound II above, clobuzarit.

[4] = system: NFκB; test: Experiment 3: NFκB-driven 3-EnhTK-Luc reporter in CV1 cells with GR1; assay type: cell-based, African Green Monkey; conditions: for % Control: Blank = 100
Text: as §1
This experiment was intended to show the effect of compounds I on a mediator of the immune response, nuclear factor—κB (NF-κB).
The following two plasmids were included into CV1 cells described above— • (a) GR1 as described above at 2 ug per 5×10^5 cells, and • (b) a plasmid designated 3-EnhTK-Luc (at 0.5 ug per 5×10^5 cells) which contains a transcription site that is activated by NFκB.
The blank represented the inclusion of these two plasmids alone; the relatively high value was caused by (i) the high level of serum in the culture, and (ii) the associated stress that the cells underwent during the […]—both of which upregulate NFκB. There was also a related relatively low activation of TNF (at 4 ng/ml) above a serum containing blank in the experiment. TNF was tumour necrosis factor alpha.

[5] = substance 10^-8M added with TPA
[6] = CPII 10^-7M together with DHT 10^-7M
[7] = substance added with TPA 75 ng/ml
[8] = substance added alone, TNF 4 ng/ml
[9] = substance added with TNF 4 ng/ml

CC(C)(OCc1ccc(-c2ccc(Cl)cc2)cc1)C(=O)O [Compound II, 1-[4-(4-chlorophenyl)benzyloxy]-1-methylpropionic acid]
luciferase production when thyroid hormone receptor synthesis is inhibited, in words [1]: substantially prevented | Raw Counts [1, 5]: 8716 counts | % Control [1, 5]: 597.8% | % Control ([1]; substance added alone): 163.2% | Raw Counts ([1]; substance added alone, CPII 10^-8M): 2379 counts | activation of androgen receptor-driven transcription, in words ([2]; 10^-7M, compared with DHT): negligible activity | Raw counts (AR) [2, 6]: 1232241 counts | % control (AR) [2, 6]: 26574% | Raw counts (AR) ([2]; substance alone at 10^-7M): 33130 counts | % control (AR) ([2]; substance alone at 10^-7M): 714% | collagenase I (MMP) promoter activity in the absence of either receptor, in words ([3]; TPA stimulated and unstimulated, Empty): able to reduce the level | Raw counts (Empty) ([3]; luciferase, substance added alone, TPA 75 ng/ml): 1882 counts | % control (Empty) ([3]; substance added alone): 78% | Raw counts (Empty) [3, 7]: 2747 counts | % control (Empty) [3, 7]: 115% | Raw Counts [4, 8]: 75812 counts | % Control [4, 8]: 127% | Raw Counts [4, 9]: 135886 counts | % Control [4, 9]: 228% | upregulation of transcriptional activity by NFκB, in words ([4]; versus background value): not able to upregulate transcriptional activity by NFκB | inhibitory effect on NFκB transcription, in words ([4]; with TNF): lack of inhibitory effect

Source: patent US20070213402A1, “Compounds which interact with the thyroid hormone receptor for the treatment of fibrotic disease” (priority 1998, published 2007)
